Data: ChEMBL document CHEMBL4418306, “Quinolinone lysyl oxidase-like 2 inhibitors and uses thereof” (2017)
Activity calls are given as the source filed them. The rule behind the calls is not given here.

Tested on: Mus musculus
Assay: Antifibrotic activity in C57BL/6 mouse model of bleomycin-induced lung fibrosis assessed as reduction in collagen level in lung at 60 mg/kg, po pre-treated 1 hr to 1 day before bleomycin injection and measured after 14 to 28 days by hydroxyproline assay
Type: functional, organism-based

For `NCc1cc(=O)c2cc(Br)ccc2[nH]1`, the Activity was “Active”.
